The values that follow come from patent US20240415819A1, “MACROCYCLIC COMPOUNDS AS PROTEASOME SUBUNIT BETA TYPE-5 INHIBITORS” (Lead Discovery Center GmbH, priority 2021, published 2024).

The assay deals with hPMBC. Nature of the assay: Chymotrypsin-like ProteasomeGlo assay in hPBMC. In kind it is cell-based. The settings on record: Homo sapiens; read-out: Pglo hPBMC. A digest of the protocol: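 IC50 derived from luminescent chymotrypsin-like proteasome activity (Suc-LLVY-Glo substrate plus luciferin detection reagent). Measured after 105 min compound exposure at 37 °C, 5% CO2. Cells were human B cells purified from buffy-coat PBMC.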
For `Cc1ccc2cc1CNC(=O)[C@H](CCc1ccccc1)NC(=O)[C@@H](NC(=O)Cc1nnc(N)[nH]1)CC(=O)N1CCCC(CCO2)C1` (stereo partly drawn) [Compound 340, 2-(5-amino-1H-1,2,4-triazol-3-yl)-N-((9S,12S)-5^4-methyl-8,11,14-trioxo-9-phenethyl-4-oxa-7,10-diaza-1(3,1)-piperidina-5(1,3)-benzenacyclotetradecaphane-12-yl)acetamide], the IC50 was < 0.1 µM.
`CC(=O)N[C@H]1CC(=O)N2CCCC(CCOc3ccc(C)c(c3)CNC(=O)C(c3cnn(CCC(=O)O)c3)NC1=O)C2` (stereo partly drawn) [Compound 567, 3-(4-((12S)-12-acetamido-5^4-methyl-8,11,14-trioxo-4-oxa-7,10-diaza-1(3,1)-piperidina-5(1,3)-benzenacyclotetradecaphane-9-yl)-1H-pyrazol-1-yl)propanoic acid]: the IC50 is < 0.1 µM.
As for `Cc1ccc2cc1CNC(=O)[C@H](CCc1ccccc1)NC(=O)[C@@H](NC(=O)CC(C)(C)C)CC(=O)N1CCCC(CCO2)C1` (stereo partly drawn) [Compound 28, 3,3-dimethyl-N-((9S,12S)-5^4-methyl-8,11,14-trioxo-9-phenethyl-4-oxa-7,10-diaza-1(3,1)-piperidina-5(1,3)-benzenacyclotetradecaphane-12-yl)butanamide], the figure is 0.1 to 0.5 µM; as for `Cc1ccc2cc1CNC(=O)C(CCc1ccc(C3(C)COC3)cc1)NC(=O)[C@@H](NC(=O)OCc1ccccc1)CC(=O)N1CCCC(CCO2)C1` (stereo partly drawn) [Compound 510, benzyl ((12S)-5^4-methyl-9-(4-(3-methyloxetan-3-yl)phenethyl)-8,11,14-trioxo-4-oxa-7,10-diaza-1(3,1)-piperidina-5(1,3)-benzenacyclotetradecaphane-12-yl)carbamate], < 0.1 µM; as for `Cc1ccc2cc1CNC(=O)C(CCc1cnccn1)NC(=O)[C@@H](NC(=O)C1(c3ccc(N)cc3)CC1)CC(=O)N1CCCC(CCO2)C1` (stereo partly drawn) [Compound 371, 1-(4-aminophenyl)-N-((9S,12S)-5^4-methyl-8,11,14-trioxo-9-(2-(pyrazin-2-yl)ethyl)-4-oxa-7,10-diaza-1(3,1)-piperidina-5(1,3)-benzenacyclotetradecaphane-12-yl)cyclopropane-1-carboxamide], < 0.1 µM.
Next, `Cc1ccc2cc1CNC(=O)[C@H](CCc1ccccc1)NC(=O)[C@@H](NC(=O)OCc1ccccc1)CC(=O)N1CC(CCO2)CC2CCCCC21` (stereo partly drawn) [Compound 314, benzyl ((9S,12S)-5^4-methyl-8,11,14-trioxo-9-phenethyl-11,12,13,14,14a,15,16,17,18,18a-decahydro-4-oxa-7,10-diaza-1(3,1)-quinolina-5(1,3)-benzenacyclotetradecaphane-12-yl)carbamate]: < 0.1 µM.
`Cc1ccc2cc1CNC(=O)[C@@H](CCc1ccccc1)NC(=O)[C@H](NC(=O)C(C)(C)CS)CC(=O)N1CCCC(CCO2)C1` (stereo partly drawn) [Compound 348, 3-mercapto-2,2-dimethyl-N-((9S,12S)-5^4-methyl-8,11,14-trioxo-9-phenethyl-4-oxa-7,10-diaza-1(3,1)-piperidina-5(1,3)-benzenacyclotetradecaphane-12-yl)propanamide]: the IC50 is < 0.1 µM.
With `CC(=O)N[C@H]1CC(=O)N2CCCC(CCOc3ccc(C)c(c3)CNC(=O)C(c3coc(C)n3)NC1=O)C2` (stereo partly drawn) [Compound 553, N-((12S)-5^4-methyl-9-(2-methyloxazol-4-yl)-8,11,14-trioxo-4-oxa-7,10-diaza-1(3,1)-piperidina-5(1,3)-benzenacyclotetradecaphane-12-yl)acetamide], the IC50 was < 0.1 µM.
As for `Cc1ccc2cc1CNC(=O)[C@H](CCc1ccccc1)NC(=O)[C@@H](NC(=O)OCc1ccccc1)CCCC(=O)N1CCCC3(CC(C3)O2)C1` [Compound 283, benzyl ((7S,10S)-34-methyl-6,9,14-trioxo-7-phenethyl-2-oxa-5,8-diaza-15(3,1)-piperidina-3(1,3)-benzena-1(1,3)-cyclobutanapentadecaphane-10-yl)carbamate], the figure is 0.5 to 1 µM; as for `Cc1ccc2cc1CNC(=O)[C@H](CCc1ccccc1)NC(=O)[C@@H](NC(=O)Cc1csc(N)n1)CC(=O)N1CCCC(CCO2)C1` (stereo partly drawn) [Compound 302, 2-(2-aminothiazol-4-yl)-N-((9S,12S)-5^4-methyl-8,11,14-trioxo-9-phenethyl-4-oxa-7,10-diaza-1(3,1)-piperidina-5(1,3)-benzenacyclotetradecaphane-12-yl)acetamide], < 0.1 µM; as for `CCOC(C(=O)N[C@H]1CC(=O)N2CCCC(CCOc3ccc(C)c(c3)CNC(=O)[C@H](CCc3ccccc3)NC1=O)C2)c1ccc(N)cc1` (stereo partly drawn) [Compound 345, 2-(4-aminophenyl)-2-ethoxy-N-((9S,12S)-5^4-methyl-8,11,14-trioxo-9-phenethyl-4-oxa-7,10-diaza-1(3,1)-piperidina-5(1,3)-benzenacyclotetradecaphane-12-yl)acetamide], < 0.1 µM.
`CC(=O)N[C@H]1CC(=O)N2CCCC(CCOc3ccc(C)c(c3)CNC(=O)C(c3cn(C)cn3)NC1=O)C2` (stereo partly drawn) [Compound 557, N-((12S)-5^4-methyl-9-(1-methyl-1H-imidazol-4-yl)-8,11,14-trioxo-4-oxa-7,10-diaza-1(3,1)-piperidina-5(1,3)-benzenacyclotetradecaphane-12-yl)acetamide]: the IC50 is < 0.1 µM.
Regarding `Cc1nc(C2NC(=O)[C@@H](NC(=O)OCc3ccccc3)CC(=O)N3CCCC(CCOc4ccc(C)c(c4)CNC2=O)C3)co1` (stereo partly drawn) [Compound 512, benzyl ((12S)-5^4-methyl-9-(2-methyloxazol-4-yl)-8,11,14-trioxo-4-oxa-7,10-diaza-1(3,1)-piperidina-5(1,3)-benzenacyclotetradecaphane-12-yl)carbamate], the IC50 was < 0.1 µM.
Next, `CC(=O)N[C@H]1CC(=O)N2CCCC(CCOc3ccc(C)c(c3)CNC(=O)C(c3cc(C)n(C)n3)NC1=O)C2` (stereo partly drawn) [Compound 561, N-((12S)-9-(1,5-dimethyl-1H-pyrazol-3-yl)-5^4-methyl-8,11,14-trioxo-4-oxa-7,10-diaza-1(3,1)-piperidina-5(1,3)-benzenacyclotetradecaphane-12-yl)acetamide]: < 0.1 µM; `CO[C@@H](C(=O)N[C@H]1CC(=O)N2CCCC(CCOc3ccc(C)c(c3)CNC(=O)C(c3cnn(C)c3)NC1=O)C2)c1ccccc1` (stereo partly drawn) [Compound 361, (2R)-2-methoxy-N-((12S)-5^4-methyl-9-(1-methyl-1H-pyrazol-4-yl)-8,11,14-trioxo-4-oxa-7,10-diaza-1(3,1)-piperidina-5(1,3)-benzenacyclotetradecaphane-12-yl)-2-phenylacetamide]: < 0.1 µM; `Cc1ccc2cc1CNC(=O)C(CCc1ccncc1)NC(=O)[C@@H](NC(=O)C1(c3ccc(N)cc3)CC1)CC(=O)N1CCCC(CCO2)C1` (stereo partly drawn) [Compound 343, 1-(4-aminophenyl)-N-((12S)-5^4-methyl-8,11,14-trioxo-9-(2-(pyridin-4-yl)ethyl)-4-oxa-7,10-diaza-1(3,1)-piperidina-5(1,3)-benzenacyclotetradecaphane-12-yl)cyclopropane-1-carboxamide]: < 0.1 µM.
As for `COC(=O)N(CC1NC(=O)[C@@H](NC(C)=O)CC(=O)N2CCCC(CCOc3ccc(C)c(c3)CNC1=O)C2)c1ccccc1` (stereo partly drawn) [Compound 560, methyl (((12S)-12-acetamido-5^4-methyl-8,11,14-trioxo-4-oxa-7,10-diaza-1(3,1)-piperidina-5(1,3)-benzenacyclotetradecaphane-9-yl)methyl)(phenyl)carbamate], the figure is < 0.1 µM; as for `CC(=O)N[C@H]1CC(=O)N2CCCC(CCOc3ccc(C)c(c3)CNC(=O)C(c3cnn(CCOCCOCCOCCN)c3)NC1=O)C2` (stereo partly drawn) [Compound 566, N-((12S)-9-(1-(2-(2-(2-(2-aminoethoxy)ethoxy)ethoxy)ethyl)-1H-pyrazol-4-yl)-5^4-methyl-8,11,14-trioxo-4-oxa-7,10-diaza-1(3,1)-piperidina-5(1,3)-benzenacyclotetradecaphane-12-yl)acetamide], 0.1 to 0.5 µM; as for `Cc1ccc2cc1CNC(=O)C(CCc1ccc(S(=O)(=O)O)cc1)NC(=O)[C@@H](NC(=O)OCc1ccccc1)CC(=O)N1CCCC(CCO2)C1` (stereo partly drawn) [Compound 509, 4-(2-((12S)-12-(((benzyloxy)carbonyl)amino)-5^4-methyl-8,11,14-trioxo-4-oxa-7,10-diaza-1(3,1)-piperidina-5(1,3)-benzenacyclotetradecaphane-9-yl)ethyl)benzenesulfonic acid], 0.1 to 0.5 µM.
As for `Cc1ccc2cc1CNC(=O)[C@H](CCc1ccccc1)NC(=O)[C@@H](NC(=O)OCc1ccccc1)CC(=O)N1CCCC3(CC(C3)O2)C1` [Compound 300], the figure is 0.5 to 1 µM; as for `CC(=O)N[C@H]1CC(=O)N(C)CCCCOc2ccc(C)c(c2)CNC(=O)[C@H](CCc2ccccc2)NC1=O` [Compound 296, N-(1^4,7-dimethyl-8,11,14-trioxo-13-phenethyl-2-oxa-7,12,15-triaza-1(1,3)-benzenacyclohexadecaphane-10-yl)acetamide], 0.1 to 0.5 µM.
For `Cc1ccc2cc1CNC(=O)[C@H](CCc1ccccc1)NC(=O)[C@@H](NC(=O)OCc1ccccc1)CCC(=O)N1CCCC3(CC(C3)O2)C1` [Compound 301, benzyl ((7S,10S)-3^4-methyl-6,9,13-trioxo-7-phenethyl-2-oxa-5,8-diaza-14(3,1)-piperidina-3(1,3)-benzena-1(1,3)-cyclobutanatetradecaphane-10-yl)carbamate], the IC50 was 1 to 5 µM.
Next, `CC(=O)N[C@H]1CC(=O)N2CCCC(CCOc3ccc(C)c(c3)CNC(=O)C(c3cnn(-c4ccccc4)c3)NC1=O)C2` (stereo partly drawn) [Compound 559, N-((12S)-5^4-methyl-8,11,14-trioxo-9-(1-phenyl-1H-pyrazol-4-yl)-4-oxa-7,10-diaza-1(3,1)-piperidina-5(1,3)-benzenacyclotetradecaphane-12-yl)acetamide]: < 0.1 µM; `Cc1cc2cc(c1C)CNC(=O)C(c1cnn(C)c1)NC(=O)CCC(=O)N1CCCC(CCO2)C1` (stereo not drawn) [Compound 355, 5^4,5^5-dimethyl-9-(1-methyl-1H-pyrazol-4-yl)-4-oxa-7,10-diaza-1(3,1)-piperidina-5(1,3)-benzenacyclotetradecaphane-8,11,14-trione]: < 0.1 µM.
